Measured values from patent publication US20110275635A1 (priority 2009, published 2011).
In brackets after ≈: the same amount, converted by molar mass. Where a name gives a salt, the structure may show the parent alone. Read-outs that look alike come from different tables or passages of the source.

Tests used:
[1] = system: Bacillus anthracis Sterne; experiment: microbe, parasite or virus in culture; type: cell-based; settings: for MIC: Bacillus anthracis
B. anthracis NADs = B. anthracis NADs (Bacillus anthracis, UniProt Q81RP3); type: biochemical
Chain of B. anthracis NADs (Q81RP3 whole entry, looked up): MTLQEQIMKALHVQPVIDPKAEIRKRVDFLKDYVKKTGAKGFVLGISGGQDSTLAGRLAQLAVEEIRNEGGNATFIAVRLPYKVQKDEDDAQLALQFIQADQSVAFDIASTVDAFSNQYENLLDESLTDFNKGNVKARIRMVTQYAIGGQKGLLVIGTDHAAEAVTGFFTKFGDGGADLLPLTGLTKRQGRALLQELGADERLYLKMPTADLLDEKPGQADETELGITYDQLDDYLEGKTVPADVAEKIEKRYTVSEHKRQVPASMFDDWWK

[2] = In vivo toxicity, maximum tolerated dose; settings: female, BALB/c, mouse, intraperitoneal
hNaMNAT-1 = hNaMNAT-1 (Homo sapiens, UniProt Q9HAN9); experiment: Human NAMNAT inhibition in vitro; type: biochemical
Chain of hNaMNAT-1 (Q9HAN9 whole entry): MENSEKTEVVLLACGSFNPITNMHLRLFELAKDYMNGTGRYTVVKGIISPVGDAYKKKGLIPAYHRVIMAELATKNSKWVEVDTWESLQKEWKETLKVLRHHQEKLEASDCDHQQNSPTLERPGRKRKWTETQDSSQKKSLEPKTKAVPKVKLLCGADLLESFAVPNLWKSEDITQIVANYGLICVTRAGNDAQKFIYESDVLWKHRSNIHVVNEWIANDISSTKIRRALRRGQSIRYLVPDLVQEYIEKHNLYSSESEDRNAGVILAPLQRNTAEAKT

SUM159 = experiment: In vitro human breast cancer cell growth inhibition; type: cell-based; settings: SUM159, read-out: In Vitro Human Breast Cancer Inhibition (IC50, μM) SUM159
MDA-MB-436 = experiment: as above; type: cell-based; settings: MDA-MB-436, read-out: In Vitro Human Breast Cancer Inhibition (IC50, μM) MDA-MB-436
HCC1937 = experiment: as above; type: cell-based; settings: HCC1937, read-out: In Vitro Human Breast Cancer Inhibition (IC50, μM) HCC1937

Compound	MIC ([1]; read-out: B.a. MIC (μM)) [µM]	IC50 (B. anthracis NADs; read-out: IC50) [µM]	IC50 (B. anthracis NADs; read-out: NADs IC50) [µM]	other results
O=C(O)c1cn(C2CC2)c2cc(N3CCNCC3)c(F)cc2c1=O [Cipro, ciprofloxacin hydrochloride, reference compound]	0.5			
Cc1ccc(-c2nc3cc(Cl)ccc3o2)cc1CC(=O)c1cc([N+](=O)[O-])c(C)c([N+](=O)[O-])c1 [Compound 5588]	> 240	78.5	84 ± 35	MIC ([1]; 5 h, read-out: MIC100 (μM)): > 215 µM
O=C1C=C(Nc2ccccc2C(=O)O)C(=O)C=C1Nc1ccccc1C(=O)O [Compound 5589]	> 264	137	118 ± 67	
O=[N+]([O-])c1ccc(-c2cnc(N/N=C/c3cccc([N+](=O)[O-])c3)nc2)cc1 [Compound 5591]	> 274	160	160 ± 57	
CCOC(=O)C1=C(Nc2cccc3ccccc23)S/C(=C\c2ccc([N+](=O)[O-])cc2)C1=O [Compound 5597]	> 224	86.1	86 ± 33	
CCc1ccc(S(=O)(=O)Nc2c([N+](=O)[O-])ccc3ccccc23)cc1 [Compound 5599]				MIC ([1]; 5 h, read-out: MIC100 (μM)): 3.75 µM (≈ 1.34 µg/mL)
O=C(CCC(=O)Nc1ccc(Nc2ccccc2)cc1)Nc1ccc(Nc2ccccc2)cc1 [Compound 5604]	> 222	141	256 ± 210	
O=C(Nc1ccc([N+](=O)[O-])cc1)c1ccc(-c2nnc(-c3ccccc3)o2)cc1 [Compound 5605]	> 259	146	146 ± 0.2	MIC ([1]; 5 h, read-out: MIC100 (μM)): > 259 µM
O=C(COC(=O)c1ccc(NC(=O)c2ccc([N+](=O)[O-])cc2)cc1)c1ccc(F)cc1 [Compound 5606]	> 237	141	176 ± 49	
COc1ccc(CCNC(=O)NCc2cccc(CNC(=O)NCCc3ccc(OC)cc3)c2)cc1 [Compound 5609]	> 204	70	70	
O=C(Cn1cc(/C=C/c2[nH]c(=O)[nH]c(=O)c2[N+](=O)[O-])c2ccccc21)Nc1ccc(F)cc1 [Compound 5615]		55.4	55.4	MIC ([1]; 5 h, read-out: MIC100 (μM)): > 223 µM
Nc1ncnc(Nc2ccc(Cl)cc2C(=O)c2ccccc2Cl)c1[N+](=O)[O-] [Compound 5616]	> 247	208	231 ± 36	
O=C(Nc1ccc(S(=O)(=O)Nc2ncccn2)cc1)Nc1ccc(Cl)c(Cl)c1 [Compound 5617]	15 (≈ 6.57 µg/mL)			activity against B. anthracis (in words) [1]: good activities
O=[N+]([O-])c1ccc(O)c(/C=N/c2cccc(O)c2)c1 [Compound 5660]	> 387	22.5	22.5	
NC(=O)c1ccc(/N=C/c2cc([N+](=O)[O-])ccc2Cl)cc1 [Compound 5679]	> 329	262	262 ± 8	
O=C(Nc1cccc(/N=C/c2cc([N+](=O)[O-])ccc2O)c1)c1cccc(Br)c1 [Compound 5684]	> 227	99.5	99 ± 12	
O=C(Nc1cccc(/N=C/c2cc([N+](=O)[O-])ccc2O)c1)c1ccc(Cl)cc1Cl [Compound 5691]	> 232	106	106 ± 2	
COc1ccc(NC(=O)Nc2cccc(NC(=O)Nc3ccc(OC)cc3)c2F)cc1 [Compound 5707]	> 240	253	253 ± 65	
Cc1ccc(C(=O)Nc2cccc(-c3nc4ccccc4[nH]3)c2)cc1 [Compound 5710]	> 240	128	189 ± 86	
COc1ccc(Oc2ccc([N+](=O)[O-])cc2C(=O)Nc2ccc(S(N)(=O)=O)cc2)cc1 [Compound 5724]	> 240	291	291 ± 29	
Cc1cc(-c2nnc(CSc3nnc(NC(=O)c4ccc(F)c(Cl)c4)s3)o2)ccc1[N+](=O)[O-] [Compound 5731]	> 240	271	270 ± 3	
COc1ccccc1NC(=O)NC(=O)c1ccc(-c2csnn2)cc1 [Compound 5737]	> 240	235	235 ± 71	

Compound	MIC ([1]; read-out: B.a. MIC (μM)) [µM]	IC50 (B. anthracis NADs; read-out: IC50) [µM]	IC50 (B. anthracis NADs; read-out: NADs IC50) [µM]	other results
Cc1onc(-c2ccccc2)c1NC(=O)Nc1ccc(Oc2ncnc3cc(Cl)ccc23)nc1 [Compound 5763]	> 240	232	232 ± 55	
COc1ccc(NC(=O)Nc2ccc(Oc3ncnc4cc(Cl)ccc34)nc2)cc1OC1CCCC1 [Compound 5764]	> 240	97.2	97 ± 55	
Nc1c(C(=O)c2ccc([N+](=O)[O-])cc2)sc(Nc2ccccc2)c1-c1nc2ccccc2[nH]1 [Compound 5768]	> 240	170	170 ± 48	
N/C(=N\OC(=O)c1ccc(Cl)c(Cl)c1)c1cccc(CSc2ccccn2)c1 [Compound 5775]	> 240	290	290	
O=C(Nc1ccc(/N=N/c2ccccc2)cc1)c1ccc([N+](=O)[O-])cc1 [Compound 5792]	> 240	76	76 ± 13	
O=C(Nc1ccccc1)Nc1ccc(NC(=O)c2ccc(NC(=O)Nc3ccccc3)cc2)cc1 [Compound 5793]	> 240	78.8	79 ± 38	
O=C(Nc1ccc2oc(-c3cc(Br)ccc3Cl)nc2c1)c1cccc([N+](=O)[O-])c1 [Compound 5798]		61.8	61.8	MIC ([1]; 5 h, read-out: MIC100 (μM)): > 240 µM
O=C(Nc1cccc(Oc2ccc3c(c2)C(=O)N(c2ccccc2)C3=O)c1)c1cccc([N+](=O)[O-])c1 [Compound 5799]	> 240	175	202 ± 38	
O=C(Nc1cccc(C(=O)Nc2cccc3ccccc23)c1)c1cccc([N+](=O)[O-])c1 [Compound 5802]	> 240	225	225 ± 36	
Cc1cc(C)c2oc(-c3cccc(NC(=O)/C=C/c4cccc([N+](=O)[O-])c4)c3)nc2c1 [Compound 5806]	> 240	67.8	68 ± 5	
COc1cccc(NC(=O)Nc2nnc(COc3ccc([N+](=O)[O-])cc3)s2)c1 [Compound 5807]	> 240	124	124 ± 5	
O=C(Nc1ccc(Cc2ccc(NC(=O)c3ccc4c(c3)OCO4)cc2)cc1)c1ccc2c(c1)OCO2 [Compound 5818]		65.7	65.7	MIC ([1]; 5 h, read-out: MIC100 (μM)): > 240 µM
NC(=O)c1ccc(NC(=O)c2ccc(Oc3ccc([N+](=O)[O-])cc3Cl)cc2)cc1 [Compound 5821]	> 240	104	130 ± 37	
COc1ccccc1NC(=O)COc1ccc(/C=C(/C#N)c2nc3ccccc3[nH]2)cc1 [Compound 5822]	> 240	107	178 ± 102	
Cc1c(NC(=O)c2ccc(N3CCCC3)c([N+](=O)[O-])c2)cccc1-c1nc2ccccc2[nH]1 [Compound 5830]	> 240	198	193 ± 8	
O=C(NC(=S)Nc1cc(-c2nc3ccccc3[nH]2)ccc1Cl)c1ccccc1[N+](=O)[O-] [Compound 5831]	> 240	243	243 ± 38	
O=C(CSc1nc(Nc2ccccc2)nc(N2CCOCC2)n1)Nc1ccc([N+](=O)[O-])cc1O [Compound 5833]	15 (≈ 7.25 µg/mL)			activity against B. anthracis (in words) [1]: good activities
O=C(Nc1ccc(S(=O)(=O)Nc2cccc(C(F)(F)F)c2)cc1)Nc1cccc(Cl)c1 [Compound 5991]				MTD [2]: 10 mg/kg
COc1cccc(NC(=O)Nc2ccc(S(=O)(=O)Nc3ccc(Cl)c(Cl)c3)cc2)c1 [Compound 6325]				MTD [2]: 50 mg/kg
O=C(Nc1ccc(S(=O)(=O)Nc2ccc(Cl)c(Cl)c2)cc1)Nc1cccc([N+](=O)[O-])c1 [Compound 6333]				MTD [2]: 250 mg/kg
CCOc1ccc(NS(=O)(=O)c2ccc(NC(=O)CCC(=O)c3ccccc3)cc2)cc1 [Compound 6484]				MTD [2]: > 500 mg/kg
O=C(Nc1ccc(S(=O)(=O)Nc2ccccc2C(F)(F)F)cc1)Nc1cccc([N+](=O)[O-])c1 [Compound 6572]				IC50 (hNaMNAT-1): > 600 µM; IC50 (SUM159): 10 µM; IC50 (MDA-MB-436): 35 µM; IC50 (HCC1937): 35 µM
